We go through 20 compounds from PubChem BioAssay AID1259408 (Genetic Toxicology Data Bank (GENE-TOX), 2018).

Activity calls are given as the source filed them. How the calls were made is not given here.

This data set has as its system GENE-TOX genotoxicity assays, various organisms and cells. The data set is described as follows: GENE-TOX mutagenicity studies. The conditions noted are these: for call: Assay Type: In vivo carcinogenicity studies.
The mark [1] stands for this setting: Species/Cell Type: Drosophila melanogaster, Assay Type: Sex-linked recessive lethal gene mutation, Assay Code: SRL+, Evaluation Type: Evaluation A (Pre-1980).
[2] abbreviates: Species/Cell Type: Salmonella typhimurium (one or more of the five standard strains: TA98, TA100, TA1535, TA1537, and TA1538), Assay Type: Histidine reverse gene mutation, Ames assay, Assay Code: SAL+, Evaluation Type: Evaluation A (Pre-1980).
Setting [3] is: Species/Cell Type: Nonhuman, Assay Type: Sister-chromatid exchange (SCE) in vitro, Assay Code: SC2+D, Dose Response: With dose response, Evaluation Type: Evaluation B (Post-1980).
The mark [4] stands for this setting: Species/Cell Type: Mammalian polychromatic erythrocytes, Assay Type: Micronucleus test, chromosome aberrations, Assay Code: MNTT, Evaluation Type: Evaluation B (Post-1980).
The mark [5] stands for this setting: Species/Cell Type: Salmonella typhimurium (one or more of the five standard strains: TA98, TA100, TA1535, TA1537, and TA1538), Assay Type: Histidine reverse gene mutation, Ames assay, Assay Code: SALT, Evaluation Type: Evaluation A (Pre-1980).
Where [6] appears, read: Species/Cell Type: Saccharomyces cerevisiae, Assay Type: Mitotic recombination or gene conversion, Assay Code: YEH-, Evaluation Type: Evaluation A (Pre-1980).
[7] abbreviates: Species/Cell Type: Salmonella typhimurium (one or more of the five standard strains: TA98, TA100, TA1535, TA1537, and TA1538), Assay Type: Histidine reverse gene mutation, Ames assay, Assay Code: SAL-, Evaluation Type: Evaluation A (Pre-1980).
[8] abbreviates: Species/Cell Type: Human diploid fibroblasts, Assay Type: Unscheduled DNA synthesis (UDS) in vitro, DNA effects, Assay Code: UDH-, Evaluation Type: Evaluation A (Pre-1980).
Setting [9] is: Species/Cell Type: Escherichia coli polA (W3119 vs P3478), Assay Type: Rec-assay, DNA effects (bacterial DNA repair), Assay Code: RE1+, Evaluation Type: Evaluation A (Pre-1980).
Setting [10] is: Species/Cell Type: Saccharomyces cerevisiae, Assay Type: Mitotic recombination or gene conversion, Assay Code: YEH+, Evaluation Type: Evaluation A (Pre-1980).
The mark [11] stands for this setting: Species/Cell Type: Syrian hamster embryo (SHE) cells, Assay Type: Cell transformation, clonal assay, Assay Code: CTC+, Evaluation Type: Evaluation A (Pre-1980).

With `ClCCN(CCCl)c1ccc2ccccc2c1`, the mutagenic call is “active; positive” under setting [1]; “active; positive” under setting [2]; “active; positive” (Species/Cell Type: Syrian hamster embryo (SA7/SHE) cells, Assay Type: Cell transformation, viral enhanced, Assay Code: CT7+, Evaluation Type: Evaluation A (Pre-1980)). Besides, where the note is “Species/Cell Type: Nonhuman, Assay Code: CCG+L, Evaluation Type: Evaluation A (Pre-1980)”, the call was “active; positive”.

Consider `C1CN(P2(N3CC3)=NP(N3CC3)(N3CC3)=NP(N3CC3)(N3CC3)=N2)CCO1` (stereo not given), for which the mutagenic call by setting is: (Species/Cell Type: Human lymphocytes or leukocytes, Assay Type: Chromosome aberrations in vitro, Assay Code: CY7+, Evaluation Type: Evaluation A (Pre-1980)) “active; positive”; (Species/Cell Type: Human lymphocytes, Assay Type: Sister-chromatid exchange (SCE) in vitro, Assay Code: SCL+D, Dose Response: With dose response, Evaluation Type: Evaluation B (Post-1980)) “active; positive”; (Species/Cell Type: Human, Assay Type: Sister-chromatid exchange (SCE) in vitro, Assay Code: SC1+D, Dose Response: With dose response, Evaluation Type: Evaluation B (Post-1980)) “active; positive”; under setting [3], “active; positive”; (Species/Cell Type: Rodents, Sex: Male, Assay Type: Dominant lethal test, Assay Code: DLT+, Evaluation Type: Evaluation A (Pre-1980)) “active; positive”.

`Cn1ncc2c(NC3=NCCO3)cccc21`: the mutagenic call runs as follows: under setting [4], “no conclusion”; (Species/Cell Type: Nonhuman, Assay Type: Sister-chromatid exchange (SCE) in vivo, Assay Code: SC3T, Evaluation Type: Evaluation B (Post-1980)) “no conclusion”.

`O=C(O)C1CCCCN1[N+](=O)[O-]` (stereo not given): the mutagenic call under setting [5] is “no conclusion”.

For `COc1ccccc1-c1ccccc1`, the mutagenic call runs as follows: under setting [6], “inactive; negative”; under setting [7], “inactive; negative”.

As for `Cc1ncc([N+](=O)[O-])n1CC(=O)O`, the mutagenic call by setting is: (Species/Cell Type: Human lymphocytes, Assay Type: Sister-chromatid exchange (SCE) in vitro, Assay Code: SCLT, Evaluation Type: Evaluation B (Post-1980)) “no conclusion”; (Species/Cell Type: Human, Assay Type: Sister-chromatid exchange (SCE) in vitro, Assay Code: SC1T, Evaluation Type: Evaluation B (Post-1980)) “no conclusion”.

Turning to `CC(=O)Nc1cc2c(cc1O)-c1ccccc1C2`, the mutagenic call was “no conclusion” (Species/Cell Type: Drosophila melanogaster, Assay Type: Sex-linked recessive lethal gene mutation, Assay Code: SRLT, Evaluation Type: Evaluation A (Pre-1980)); “inactive; negative” (Species/Cell Type: Escherichia coli polA (W3110 vs P3478), Assay Type: Rec-assay, DNA effects (bacterial DNA repair), Assay Code: RE2-, Evaluation Type: Evaluation A (Pre-1980)); “no conclusion” (Species/Cell Type: Escherichia coli polA (W3119 vs P3478), Assay Type: Rec-assay, DNA effects (bacterial DNA repair), Assay Code: RE1T, Evaluation Type: Evaluation A (Pre-1980)); “inactive; negative” under setting [8]; “inactive; negative” under setting [6]; “inactive; negative” under setting [7].

In the case of `CCC(=O)Oc1ccc2c(c1)CC[C@@H]1[C@@H]2CC[C@]2(C)[C@@H](OC(=O)CC)CC[C@@H]12`, for the setting “Species/Cell Type: Rat, Sex: Male, Assay Type: Sperm morphology, Assay Code: SPA+, Evaluation Type: Evaluation A (Pre-1980)”, the mutagenic call was “active; positive”.

`CC(=O)Oc1cc(OC(C)=O)c2c(=O)c(OC(C)=O)c(-c3ccc(OC(C)=O)c(OC(C)=O)c3)oc2c1`: under “Species/Cell Type: Salmonella typhimurium (one or more of the five standard strains: TA98, TA100, TA1535, TA1537, and TA1538), Assay Type: Histidine reverse gene mutation, Ames assay, Assay Code: SAL+*, Activation: With metabolic activation, Evaluation Type: Evaluation A (Pre-1980)”, the mutagenic call was “active; positive”.

For the compound `Nc1ccc(O)c2c1C(=O)c1ccccc1C2=O`, the mutagenic call under setting [2] is “active; positive”.

In the case of `Nc1c(O)ccc2ccccc12`, the mutagenic call is, setting by setting: under setting [9], “active; positive”; under setting [5], “no conclusion”.

As to `C=CC(OC(C)=O)c1ccc(OC)c2ccccc12` (stereo not given), under setting [2], the mutagenic call is “active; positive”.

For `O=[N+]([O-])c1ccc2c(c1)Cc1ccccc1-2`, the mutagenic call was “no conclusion” (Species/Cell Type: Escherichia coli polA (W3110 vs P3478), Assay Type: Rec-assay, DNA effects (bacterial DNA repair), Assay Code: RE2T, Evaluation Type: Evaluation A (Pre-1980)); “active; positive” under setting [9]; “inactive; negative” (Species/Cell Type: Mouse, Sex: Male, Assay Type: Sperm morphology, Assay Code: SPI-, Evaluation Type: Evaluation A (Pre-1980)); “inactive; negative” (Species/Cell Type: Neurospora crassa, Assay Type: Aneuploidy, chromosome aberrations, Assay Code: NEN-, Evaluation Type: Evaluation A (Pre-1980)); “active; positive” under setting [3]; “active; positive” (Species/Cell Type: Nonhuman, Assay Type: Sister-chromatid exchange (SCE) in vivo, Assay Code: SC3+D, Dose Response: With dose response, Evaluation Type: Evaluation B (Post-1980)). The mutagenic call runs as follows: under setting [10], “active; positive”; under setting [2], “active; positive”; (Species/Cell Type: Salmonella typhimurium, Assay Type: Forward and reverse gene mutation, host-mediated assay, Assay Code: HMA+, Evaluation Type: Evaluation A (Pre-1980)) “active; positive”; under setting [11], “active; positive”.

Consider `Cc1c2ccccc2c(C)c2c1ccc1ccc(F)cc12`, for which the mutagenic call (Species/Cell Type: Chinese hamster lung (V79) cells, Assay Type: Forward gene mutation at the HPRT or ouabain locus, Assay Code: V79-*, Activation: With metabolic activation, Evaluation Type: Evaluation A (Pre-1980)) was “inactive; negative”.

Take `CSc1ccc2c(c1)N(CCC1CCCCN1C)c1ccccc1S2` (stereo not given): the mutagenic call was “active; positive” under setting [1]; “active; positive” (Species/Cell Type: Drosophila melanogaster, Sex: Male, Assay Type: Heritable translocation test, chromosome aberrations, Assay Code: DHT+, Evaluation Type: Evaluation A (Pre-1980)); “no conclusion” under setting [4].

Consider `Cc1cc(=Nc2ccc3c(c2)c(-c2ccc(N)cc2)[n+](C)c2cc(N)ccc32)nc(N)n1C`, for which the mutagenic call under setting [2] was “active; positive”.

Turning to `CCOS(=O)(=O)c1ccc(C)cc1`, the mutagenic call was “active; positive” under setting [9]; “active; positive” (Species/Cell Type: Human diploid fibroblasts, Assay Type: Unscheduled DNA synthesis (UDS) in vitro, DNA effects, Assay Code: UDH+, Evaluation Type: Evaluation A (Pre-1980)); “active; positive” under setting [10]; “active; positive” under setting [2]; “inactive; negative” (Species/Cell Type: Salmonella typhimurium, Assay Type: Forward and reverse gene mutation, host-mediated assay, Assay Code: HMA-, Evaluation Type: Evaluation A (Pre-1980)); “active; positive” under setting [11].

As for `C[n+]1c2ccccc2cc2ccccc21`, for the setting “Species/Cell Type: Saccharomyces cerevisiae, Assay Type: Forward gene mutation, Assay Code: YEFT, Evaluation Type: Evaluation A (Pre-1980)”, the mutagenic call is on record as “no conclusion”.

As for `CCCCN(N=O)C(N)=O`, the mutagenic call is “active; positive” (Species/Cell Type: Arabidopsis species, Assay Type: Gene mutation, Assay Code: ARM+D, Dose Response: With dose response, Evaluation Type: Evaluation A (Pre-1980)); “active; positive” (Species/Cell Type: Chinese hamster ovary (CHO) cells, Assay Type: Forward gene mutation at the HPRT locus, Assay Code: CHO+D, Dose Response: With dose response, Evaluation Type: Evaluation A (Pre-1980)); “inactive; negative” under setting [8]; “active; positive” (Species/Cell Type: Nonhuman, Assay Type: Chromosome aberrations in vitro, Assay Code: CY&+D, Dose Response: With dose response, Evaluation Type: Evaluation A (Pre-1980)); “active; positive” (Species/Cell Type: Nonhuman, Assay Type: Sister-chromatid exchange (SCE) in vitro, Assay Code: SC2+D, Dose Response: With dose response, Evaluation Type: Evaluation A (Pre-1980)); “inactive; negative” (Species/Cell Type: Rodents, Sex: Male, Assay Type: Dominant lethal test, Assay Code: DLT-, Evaluation Type: Evaluation A (Pre-1980)). For the same compound, the mutagenic call (Species/Cell Type: Saccharomyces cerevisiae, Assay Type: Mitotic recombination or gene conversion, Assay Code: YEC+, Evaluation Type: Evaluation A (Pre-1980)) was “active; positive”; the mutagenic call (Species/Cell Type: Salmonella typhimurium, Escherichia coli, Serratia marcesens, Assay Type: Forward and reverse gene mutation, host-mediated assay, Assay Code: HMN+, Evaluation Type: Evaluation A (Pre-1980)) is “active; positive”. Further, where the note is “Species/Cell Type: Nonhuman, Assay Code: CCG+, Evaluation Type: Evaluation A (Pre-1980)”, the call was “active; positive”.

With `CCNC(=O)[C@@H]1CCCN1C(=O)[C@H](CCCN=C(N)N)NC(=O)[C@H](CC(C)C)NC(=O)[C@@H](Cc1c[nH]c2ccccc12)NC(=O)[C@H](Cc1ccc(O)cc1)NC(=O)[C@H](CO)NC(=O)[C@H](Cc1c[nH]c2ccccc12)NC(=O)[C@H](Cc1cnc[nH]1)NC(=O)[C@@H]1CCC(=O)N1`, under “Species/Cell Type: Human, Sex: Male, Assay Type: Sperm morphology, Assay Code: SPH+, Evaluation Type: Evaluation A (Pre-1980)”, the mutagenic call is “active; positive”.
